Measurements reported in PMC3269340, “Pharmacokinetics of memantine in rats and mice” (PLoS Currents, 2012).

Assays:
[1] = Metabolite identification in rat liver microsomes; assay type: in vitro ADME; conditions: 10 µM, 1 mg/mL rat liver microsomal protein, 60 min
Protocol: Metabolites of memantine were characterized following incubation in pooled rat liver microsomes. Incubation conditions were as described above (Section 4.1), except that for metabolite identification the memantine concentration was 10 µM, 1 mg/mL of liver microsomal protein was used, and the metabolites were identified following a 60 min incubation period. Control incubations (T=0 min) were used as reference, and testosterone incubations were used as a positive control.
Full scan mass spectra were acquired by TOF-MS as accurate mass. The instruments were controlled and data acquired by Waters MassLynx™ version 4.1 (SCN 714) software. The TOF-MS spectra were interrogated and metabolite reports generated by Waters MetaboLynx™ XS software.

[2] = biological target: T1, OCT2 (Homo sapiens, UniProt O15244); test: Direct uptake transporter assay, OCT2; assay type: in vitro ADME; conditions: for Accumulation in transporter transfected cells: OCT2-transfected cells; for Accumulation in parental cells: parental CHO cells (OCT2 line)
T1 construct: expressed in transfected cells; host or cells: CHO cells
T1 sequence (O15244 1-555): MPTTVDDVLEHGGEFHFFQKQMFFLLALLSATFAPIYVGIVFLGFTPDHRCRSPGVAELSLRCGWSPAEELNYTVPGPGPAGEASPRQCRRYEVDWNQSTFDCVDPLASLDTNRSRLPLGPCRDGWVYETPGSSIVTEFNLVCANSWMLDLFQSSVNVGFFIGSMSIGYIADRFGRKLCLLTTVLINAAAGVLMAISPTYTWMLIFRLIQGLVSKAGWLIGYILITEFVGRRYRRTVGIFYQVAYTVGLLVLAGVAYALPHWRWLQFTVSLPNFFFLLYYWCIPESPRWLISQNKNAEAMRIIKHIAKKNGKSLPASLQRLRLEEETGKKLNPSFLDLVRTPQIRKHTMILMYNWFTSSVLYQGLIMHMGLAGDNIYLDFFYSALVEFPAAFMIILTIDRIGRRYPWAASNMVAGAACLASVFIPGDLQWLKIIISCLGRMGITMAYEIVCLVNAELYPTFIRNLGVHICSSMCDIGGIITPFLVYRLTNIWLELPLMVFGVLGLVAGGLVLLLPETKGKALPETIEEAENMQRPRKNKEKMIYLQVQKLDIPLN
Protocol: To determine whether memantine is a substrate of the human OATP2B1 (OATP-B), OCT1, OCT2, OAT3, PEPT1, PEPT2 uptake transporters.
The potential for memantine to be a substrate of an uptake transporter was determined directly by comparing the uptake of memantine into cells expressing the selected uptake transporter with its uptake into control cells. Memantine was added to transporter-expressing and control cells at two concentrations (PEPT1 and PEPT2 100 and 300 µM, OCT1 and OCT2 50 and 100 µM, OATP2B1 100 and 300 µM), and incubated with cells for 2 and 20 min at 37±1°C (75 µL final incubation volume). […] Incubations were carried out as described in the indirect uptake transporter assays. The concentration of memantine was determined by LC-MS/MS.

[3] = tested on: rat AD model; conditions: cited from earlier work

## CC12CC3CC(C)(C1)CC(N)(C3)C2 [memantine]
[1]
  most abundant metabolite (based on uv signal response): product of a single aliphatic hydroxylation
[2]
  substrate of OCT2 uptake transporter: appeared to be a substrate
[2]; OCT2
  accumulation in transporter-transfected cells higher than in parental cells: > 1.5 fold
[2]; OCT2, 100µM, 2 min
  Highest Fold Activation: 1.88 (100µM, 2 min)
[2]; 2 min, 50 µM
  Accumulation in transporter transfected cells: 8492 pmol/mg
  Accumulation in parental cells: 5660 pmol/mg
[2]; 2 min, 100 µM
  Accumulation in transporter transfected cells: 15071 pmol/mg
  Accumulation in parental cells: 8000 pmol/mg
[2]; 20 min, 50 µM
  Accumulation in transporter transfected cells: 8866 pmol/mg
  Accumulation in parental cells: 5790 pmol/mg
[2]; 20 min, 100 µM
  Accumulation in transporter transfected cells: 15495 pmol/mg
  Accumulation in parental cells: 8459 pmol/mg
[3]
  cognition: improved cognition
  neuroprotection: elicited neuroprotective effects
